Assay [1] addresses T1, human pancreatic lipase (hPL) (Homo sapiens, UniProt P16233).
T1 sequence (P16233 17-465): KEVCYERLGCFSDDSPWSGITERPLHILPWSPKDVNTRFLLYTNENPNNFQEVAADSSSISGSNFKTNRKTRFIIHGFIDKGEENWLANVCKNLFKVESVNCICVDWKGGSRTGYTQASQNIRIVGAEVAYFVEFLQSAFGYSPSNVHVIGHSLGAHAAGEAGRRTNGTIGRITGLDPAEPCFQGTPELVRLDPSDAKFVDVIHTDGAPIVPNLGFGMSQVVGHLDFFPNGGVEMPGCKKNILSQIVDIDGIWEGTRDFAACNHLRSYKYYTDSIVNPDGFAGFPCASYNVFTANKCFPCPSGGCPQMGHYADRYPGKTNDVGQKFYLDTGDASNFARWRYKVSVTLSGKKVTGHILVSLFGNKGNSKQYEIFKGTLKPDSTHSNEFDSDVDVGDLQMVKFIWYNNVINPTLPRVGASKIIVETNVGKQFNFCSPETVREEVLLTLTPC
As to the kind of experiment: Fluorescence-based hPL inhibition assay on microfluidic SlipChip (DDAO-ol hydrolysis). Format: biochemical. To be noted: for inhibition of hPL-catalyzed DDAO-ol hydrolysis (in words): dose-inhibition curves, Figure 5; for pIC50: substrate DDAO-ol 20 μM, hPL 0.25 μg/mL, seven 1:1 gradient concentrations, triplicate, read-out: IC50 against hPL (SlipChip). The procedure: Fluorescence-based assays were used to determine the residual activities of hPL in the presence of different concentrations of inhibitor, and to calculate the IC50 of the inhibitors. […] Then, the inhibitor at the initial concentration was injected into the P1 fluidic path, followed by injecting DMSO into the P2, P3 and P4 fluidic paths. After sliding the SlipChip as described in Section 2.3 with optimized conditions, seven microchambers containing inhibitors with gradient concentrations were formed. At the same time, the enzyme-substrate system was prepared by mixing 111 μL Tris-HCl (pH 7.4, 25 mM), 80 μL bile salts (0.1 mg/mL, final concentration), 1 μL hPL (dissolved in Tris-HCl buffer, 0.25 μg/mL, final concentration) and 8 μL substrate (DDAO-ol, dissolved in DMSO, 20 μM, final concentration). After pipetting out the residual DMSO in the new path (P5), the prepared enzyme-substrate mixture was immediately injected into the P5 fluidic path. Finally, the top layer was slipped down and to the right, transporting the serial gradient array of inhibitor to the solution of the enzyme-substrate system. […] After 3 min, […] The SlipChip device was then placed under the Olympus IX83 inverted microscope with the same fluorescent condition to obtain the photos of each microchamber. The gray value of the fluorescent photo was analyzed by ImageJ software. The residual activity of hPL was calculated using the following formula: the residual activity (%) = the fluorescence intensity of the test sample/the fluorescence intensity in negative control (DMSO only) × 100%.
All inhibition assays were performed in triplicate (three technical replicates) for each concentration of the inhibitors. IC50 and values were calculated using GraphPad Prism 7.0 (GraphPad Software, Inc., La Jolla, CA, USA).

In assay [2] the target is T1, human pancreatic lipase (hPL). The conditions noted are these: past studies of the authors, cited from earlier work.

pIC50: −log10 of the molar value. Read-outs that look alike come from different tables or passages of the source.

As for `CCCCCCCCCCC[C@@H](C[C@@H]1OC(=O)[C@H]1CCCCCC)OC(=O)[C@H](CC(C)C)NC=O` [Orlistat], in assay [1], the “inhibition of hPL-catalyzed DDAO-ol hydrolysis (in words)” value (shortened to “inhibition”) is “strongly inhibited hPL-catalyzed DDAO-ol hydrolysis in a dose-dependent manner”.
On to `O=C(OC[C@H]1O[C@@H](OC(=O)c2cc(O)c(O)c(O)c2)[C@H](OC(=O)c2cc(O)c(O)c(O)c2)[C@@H](OC(=O)c2cc(O)c(O)c(O)c2)[C@@H]1OC(=O)c1cc(O)c(O)c(O)c1)c1cc(O)c(O)c(O)c1` [PGG, 1,2,3,4,6-penta-O-galloyl-β-D-glucopyranose], for which, in assay [1], the “inhibition” value is given as “strongly inhibited hPL-catalyzed DDAO-ol hydrolysis in a dose-dependent manner” and the pIC50 was 8.09. For the same compound, in assay [2] (read-out: IC50, anti-hPL activity), the pIC50 is 8.12.
Turning to `COc1ccc(-c2cc(=O)c3c(O)cc(O)c(-c4cc(-c5cc(=O)c6c(O)cc(OC)cc6o5)ccc4OC)c3o2)cc1` [sciadopitysin], in assay [1], the “inhibition” value is “strongly inhibited hPL-catalyzed DDAO-ol hydrolysis in a dose-dependent manner” and the pIC50 was 6.10. Further, in assay [2] (read-out: IC50, inhibitory effect on hPL), the pIC50 was 6.12.

By pIC50 is commonly meant the IC50 on a negative log10 scale, so that one unit is a factor of ten.

Values taken from publication PMC9954273, “Construction and Manipulation of Serial Gradient Dilution Array on a Microfluidic Slipchip for Screening and Characterizing Inhibitors against Human Pancreatic Lipase” (Biosensors, 2023).
